Test results published in ChEMBL document CHEMBL3997807, “Isatin-β-thiocarbohydrazones: Microwave-assisted synthesis, antitumor activity and structure-activity relationship” (Eur J Med Chem, 2017).

Assays:
[1] = test system: HeLa; test: Growth inhibition of human HeLa cells by MTT assay; format: functional, cell-based
[2] = test system: COS-7; test: Growth inhibition of African green monkey COS7 cells by MTT assay; format: functional, cell-based; details: Chlorocebus aethiops
[3] = test system: Ehrlich; test: Antitumor activity against mouse EAC cells implanted in Swiss albino mouse assessed as WBC count in blood at 0.5 mg for 9 days (reference value: 23.96 10^3/mm3); format: functional
[4] = test system: Ehrlich; test: Antitumor activity against mouse EAC cells implanted in Swiss albino mouse assessed as RBC count in blood at 0.5 mg for 9 days (reference value: 3.69 10^6/mm3); format: functional
[5] = test system: Ehrlich; test: Antitumor activity against mouse EAC cells implanted in Swiss albino mouse assessed as tumor volume in ascitic fluid at 0.5 mg for 9 days (reference value: 9.85 mL); format: functional
[6] = test system: Ehrlich; test: Antitumor activity against mouse EAC cells implanted in Swiss albino mouse assessed as hemoglobin count in blood at 0.5 mg for 9 days (reference value: 8.15 g/dL); format: functional
[7] = test system: Ehrlich; test: Antitumor activity against mouse EAC cells implanted in Swiss albino mouse assessed as viable tumor cell count in ascitic fluid at 0.5 mg for 9 days (reference value: 83.2 10^6/100uL); format: functional
[8] = test system: Ehrlich; test: Antitumor activity against mouse EAC cells implanted in Swiss albino mouse assessed as increase in mean life span at 0.5 mg for 9 days relative to control; format: functional

Structure (SMILES)	IC50 [1] [µM]	IC50 [2] [µM]	Activity [3] [×10³ /mm3]	Activity [4] [×10⁶ /mm3]	Activity [5] [mL]	Activity [6] [g/dL]	Activity [7] [×10⁶ /100microL]	ILS [8] [%]
COc1ccc(/C=N/NC(=S)N/N=C2\C(=O)Nc3ccc(C)cc32)c(OC)c1	> 50	> 50						
O=C1Nc2ccc(Br)cc2/C1=N/NC(=S)N/N=C/c1c(F)cccc1Cl	1.61	2.56	13.05	4.09	6.7	9.96	57.5	72.4
COc1ccc(/C=N/NC(=S)N/N=C2\C(=O)Nc3ccc(Br)cc32)cc1O	2.22	3.09	19.48	3.86	7.8	9.11	66.78	24.1
Cc1ccc2c(c1)/C(=N/NC(=S)N/N=C/c1ccc(Br)cc1)C(=O)N2	> 50	> 50						
Cc1ccc2c(c1)/C(=N/NC(=S)N/N=C/c1c(F)cccc1Cl)C(=O)N2	1.51	2.19	12.26	4.19	6.2	10.09	51.52	72.4
COc1ccc(/C=N/NC(=S)N/N=C2\C(=O)Nc3ccc(Br)cc32)c(OC)c1	> 50	> 50						
COc1ccc(/C=N/NC(=S)N/N=C2\C(=O)Nc3ccc(C)cc32)cc1O	2.73	3.19	9.23	4.46	3.26	11.15	38.75	110.9
O=C1Nc2ccc(Br)cc2/C1=N/NC(=S)N/N=C/c1ccccc1Br	> 50	> 50						
O=C1Nc2ccc(Br)cc2/C1=N/NC(=S)N/N=C/c1ccc(-c2ccccc2)cc1	3.25	> 50						
Cc1ccc2c(c1)/C(=N/NC(=S)N/N=C/c1cc3ccccc3c3ccccc13)C(=O)N2	> 50	> 50						
O=C1Nc2ccc(Br)cc2/C1=N/NC(=S)N/N=C/c1ccc(Br)cc1	4.68	5.18						
Cc1ccc(O)c(/C=N/NC(=S)N/N=C2\C(=O)Nc3ccc(Br)cc32)c1	> 50	> 50						
Cc1ccc2c(c1)/C(=N/NC(=S)N/N=C/c1c(Cl)cccc1Cl)C(=O)N2	1.79	3.87						
Cc1ccc2c(c1)/C(=N/NC(=S)N/N=C/c1ccc3ccccc3c1)C(=O)N2	> 50	> 50						
O=C1Nc2ccc(Br)cc2/C1=N/NC(=S)N/N=C/c1ccc2ccccc2c1	> 50	> 50						
Cc1ccc2c(c1)/C(=N/NC(=S)N/N=C/c1ccccn1)C(=O)N2	3.15	2.12	7.89	5.28	2.52	12.93	24.22	189.6
O=C1Nc2ccc(Br)cc2/C1=N/NC(=S)N/N=C/c1c(Cl)cccc1Cl	3.53	6.73						
Cc1ccc2c(c1)/C(=N/NC(=S)N/N=C/c1ccccc1Br)C(=O)N2	> 50	> 50						
Cc1ccc(O)c(/C=N/NC(=S)N/N=C2\C(=O)Nc3ccc(C)cc32)c1	> 50	> 50						
O=C1Nc2ccc(Br)cc2/C1=N/NC(=S)N/N=C/c1cc2ccccc2c2ccccc12	> 50	> 50						
Cc1ccc2c(c1)/C(=N/NC(=S)N/N=C/c1ccc(-c3ccccc3)cc1)C(=O)N2	> 50	> 50						
COc1cccc2c1C(=O)c1c(O)c3c(c(O)c1C2=O)C[C@@](O)(C(=O)CO)C[C@@H]3O[C@H]1C[C@H](N)[C@H](O)[C@H](C)O1 [DOXORUBICIN]	2.05	3.04						
O=c1[nH]cc(F)c(=O)[nH]1 [FLUOROURACIL]			8.86	5.21	1.6	12.96	20.17	237.9
